This is an account of results in patent publication US6864261B2, “Therapeutic agents useful for treating pain” (Euro-Celtique S.A., priority 2002, dated 2005).

The target of this assay is T1, mGluR5 (Rattus norvegicus, UniProt P31424).
T1 construct: The procedure allows the expression of the mGluR5 receptor by astrocytes; endogenous in cells; host or cells: secondary astrocyte cultures from cortices of Sprague-Dawley E18 embryos, cultured with EGF
The experiment in a line: Inhibition of glutamate induced calcium mobilization in astrocytes expressing mGluR5 (Fluo-4, Fluorometric Imaging Plate reader). It counts as cell-based. The note with it: final glutamate 10 mM (FIG. 1 legend: 10 μM), mean of 3 experiments. As for the experimental part: Cell cultures: Primary glial cultures were prepared from cortices of Sprague-Dawley 18 days old embryos. The cortices were dissected and then dissociated by trituration. The resulting cell homogenate was plated onto poly-D-lysine precoated T175 flasks (BIOCOAT, commercially available from Becton Dickinson and Company Inc. of Franklin Lakes, N.J.) in Dulbecco's Modified Eagle's Medium (“DMEM,” pH 7.4), buffered with 25 mM HEPES, and supplemented with 15% fetal calf serum (“FCS,” commercially available from Hyclone Laboratories Inc. of Omaha, Nebr.), and incubated at 37° C. and 5% CO2. After 24 hours, FCS supplementation was reduced to 10%. […]
Assay Protocol: After 3-5 days incubation with EGF, the astrocytes were washed with 127 mM NaCl, 5 mM KCl, 2 mM MgCl2, […] NaH2PO4, 2 mM CaCl2, 5 mM NaHCO3, 8 mM HEPES, 10 mM Glucose at pH 7.4 (“Assay Buffer”) and loaded with the dye Fluo-4 (commercially available from Molecular Probes Inc. of Eugene, Oreg.) using 0.1 mL of Assay Buffer containing Fluo-4 ([…]). […] The plates containing the astrocytes were then transferred to a Fluorometric Imaging Plate reader (commercially available from Molecular Devices Corporation of Sunnyvale, Calif.) for the assessment of calcium mobilization flux in the presence of glutamate and in the presence or absence of antagonist. […] In each experiment each data point was determined two times.
Background: A change in cytosolic calcium serves as a functional read-out for many receptors and channels.

T1 sequence (P31424 21-1203): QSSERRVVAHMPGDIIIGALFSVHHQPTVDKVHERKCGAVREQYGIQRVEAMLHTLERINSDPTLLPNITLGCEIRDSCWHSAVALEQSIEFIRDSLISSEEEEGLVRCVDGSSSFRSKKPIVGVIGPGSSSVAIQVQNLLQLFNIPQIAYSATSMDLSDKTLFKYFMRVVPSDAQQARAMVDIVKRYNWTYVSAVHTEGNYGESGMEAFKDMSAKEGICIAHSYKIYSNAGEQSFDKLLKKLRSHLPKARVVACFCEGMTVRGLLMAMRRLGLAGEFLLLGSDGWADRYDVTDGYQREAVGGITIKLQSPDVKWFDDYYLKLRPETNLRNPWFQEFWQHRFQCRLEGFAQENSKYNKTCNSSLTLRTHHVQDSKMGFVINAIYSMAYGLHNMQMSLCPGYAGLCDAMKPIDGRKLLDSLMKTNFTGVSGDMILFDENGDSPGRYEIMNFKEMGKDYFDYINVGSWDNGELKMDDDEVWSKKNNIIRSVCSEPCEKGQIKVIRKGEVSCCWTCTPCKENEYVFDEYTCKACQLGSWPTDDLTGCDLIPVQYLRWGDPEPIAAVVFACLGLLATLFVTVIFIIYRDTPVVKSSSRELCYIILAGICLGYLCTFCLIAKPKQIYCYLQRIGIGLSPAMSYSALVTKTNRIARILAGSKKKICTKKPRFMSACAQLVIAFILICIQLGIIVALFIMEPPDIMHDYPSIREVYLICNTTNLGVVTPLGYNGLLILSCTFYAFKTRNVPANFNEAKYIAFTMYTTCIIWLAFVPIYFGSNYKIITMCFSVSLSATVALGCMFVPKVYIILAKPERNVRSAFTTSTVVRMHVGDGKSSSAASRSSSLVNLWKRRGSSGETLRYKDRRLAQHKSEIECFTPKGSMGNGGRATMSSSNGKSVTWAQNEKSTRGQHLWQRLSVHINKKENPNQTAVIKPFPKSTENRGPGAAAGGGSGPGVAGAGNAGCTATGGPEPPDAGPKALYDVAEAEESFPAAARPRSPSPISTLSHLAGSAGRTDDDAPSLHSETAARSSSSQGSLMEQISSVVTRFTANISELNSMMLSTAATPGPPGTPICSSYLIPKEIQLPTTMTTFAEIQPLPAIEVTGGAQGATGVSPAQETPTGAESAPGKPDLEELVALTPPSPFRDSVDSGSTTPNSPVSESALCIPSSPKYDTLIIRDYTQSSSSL

As usually defined, the IC50 is the concentration at which inhibition is half-maximal. Consider `O=C(C#Cc1ccccc1)N1CCN(c2ncccc2[N+](=O)[O-])CC1` [Compound AA], for which the IC50 came to 8.9 ± 4.8 nM.
